This test concerns the target BoNT/A (Clostridium botulinum, UniProt P0DPI1). It is filed as cell-based.

“Also recorded” adds a separate entry of the source.

BoNT/A, sequence (P0DPI1 2-448 limits assumed): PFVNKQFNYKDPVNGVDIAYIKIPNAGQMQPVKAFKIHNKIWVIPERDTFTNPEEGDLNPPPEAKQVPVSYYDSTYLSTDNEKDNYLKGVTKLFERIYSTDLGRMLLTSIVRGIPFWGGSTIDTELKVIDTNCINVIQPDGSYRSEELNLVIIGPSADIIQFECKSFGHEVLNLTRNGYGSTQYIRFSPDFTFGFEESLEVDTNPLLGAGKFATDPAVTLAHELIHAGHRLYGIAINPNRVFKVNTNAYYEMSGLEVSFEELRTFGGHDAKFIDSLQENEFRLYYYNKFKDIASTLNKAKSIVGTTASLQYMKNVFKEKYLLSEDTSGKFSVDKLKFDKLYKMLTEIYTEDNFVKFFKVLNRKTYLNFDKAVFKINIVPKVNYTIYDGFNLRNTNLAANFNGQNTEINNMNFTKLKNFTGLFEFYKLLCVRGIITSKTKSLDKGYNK
BoNT/A, sequence (P0DPI1 449-1296 limits assumed): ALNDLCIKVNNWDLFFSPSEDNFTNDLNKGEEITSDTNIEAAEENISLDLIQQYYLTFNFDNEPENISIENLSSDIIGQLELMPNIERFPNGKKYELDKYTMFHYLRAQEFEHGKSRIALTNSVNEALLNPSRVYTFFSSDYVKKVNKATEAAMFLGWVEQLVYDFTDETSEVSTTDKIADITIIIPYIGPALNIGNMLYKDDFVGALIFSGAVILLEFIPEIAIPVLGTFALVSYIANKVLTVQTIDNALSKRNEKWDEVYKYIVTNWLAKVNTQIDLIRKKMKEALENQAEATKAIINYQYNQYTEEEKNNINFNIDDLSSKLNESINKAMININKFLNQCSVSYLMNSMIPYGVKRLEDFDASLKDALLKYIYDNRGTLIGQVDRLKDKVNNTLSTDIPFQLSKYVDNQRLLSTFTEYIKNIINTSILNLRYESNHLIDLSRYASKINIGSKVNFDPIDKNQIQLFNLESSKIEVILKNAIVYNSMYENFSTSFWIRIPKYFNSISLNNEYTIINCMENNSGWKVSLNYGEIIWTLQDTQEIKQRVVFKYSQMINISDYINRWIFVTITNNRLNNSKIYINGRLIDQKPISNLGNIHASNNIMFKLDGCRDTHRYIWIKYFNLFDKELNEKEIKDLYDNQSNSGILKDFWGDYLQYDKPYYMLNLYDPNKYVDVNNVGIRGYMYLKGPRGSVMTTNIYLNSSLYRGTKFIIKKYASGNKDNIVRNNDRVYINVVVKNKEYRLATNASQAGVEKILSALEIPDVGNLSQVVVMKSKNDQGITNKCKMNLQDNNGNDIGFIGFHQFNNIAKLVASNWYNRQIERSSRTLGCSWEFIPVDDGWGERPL

As to `CC(=O)O[C@@H]1C[C@H](O)[C@@]23CO[C@@H](O)[C@]1(C)[C@@H]2C[C@@H](O)[C@]1(C)[C@@H]3C(=O)[C@H](OC(C)=O)[C@@]2(C)[C@H](c3ccoc3)C[C@H]3O[C@]321` [Toosendanin], the “SNAP25 cleavage in presence of Toosendanin” value was “only full-length SNAP25 was detected; also recorded: protects against BoNT/A induced SNAP25 cleavage”.

The record behind these values is patent publication US8940477B2 (priority 2007, dated 2015).
